Laboratory results published in ChEMBL document CHEMBL4507270 (2021).

Experiments:
[1] = target: RAF proto-oncogene serine/threonine-protein kinase (Homo sapiens) (UniProt P04049)
[2] = target: Serine/threonine-protein kinase WNK2 (Homo sapiens) (UniProt Q9Y3S1)
[3] = target: Aurora kinase B (Homo sapiens) (UniProt Q96GD4)
[4] = target: Phosphatidylinositol 4,5-bisphosphate 3-kinase catalytic subunit beta isoform (Homo sapiens) (UniProt P42338)
[5] = target: Fibroblast growth factor receptor 4 (Homo sapiens) (UniProt P22455)
[6] = target: Serine/threonine-protein kinase Nek5 (Homo sapiens) (UniProt Q6P3R8)
[7] = target: Microtubule-associated serine/threonine-protein kinase 1 (Homo sapiens) (UniProt Q9Y2H9)
[8] = target: Membrane-associated tyrosine- and threonine-specific cdc2-inhibitory kinase (Homo sapiens) (UniProt Q99640)
[9] = target: Mitogen-activated protein kinase 4 (Homo sapiens) (UniProt P31152)
[10] = target: Mitogen-activated protein kinase kinase kinase 2 (Homo sapiens) (UniProt Q9Y2U5)
[11] = test system: Mast/stem cell growth factor receptor Kit (Homo sapiens), P10721 [L576P]
[12] = target: 5-hydroxytryptamine receptor 1D (Homo sapiens) (UniProt P28221); details: Compound concentration 10.0 uM
5-hydroxytryptamine receptor 1D (Homo sapiens), sequence (P28221 whole entry): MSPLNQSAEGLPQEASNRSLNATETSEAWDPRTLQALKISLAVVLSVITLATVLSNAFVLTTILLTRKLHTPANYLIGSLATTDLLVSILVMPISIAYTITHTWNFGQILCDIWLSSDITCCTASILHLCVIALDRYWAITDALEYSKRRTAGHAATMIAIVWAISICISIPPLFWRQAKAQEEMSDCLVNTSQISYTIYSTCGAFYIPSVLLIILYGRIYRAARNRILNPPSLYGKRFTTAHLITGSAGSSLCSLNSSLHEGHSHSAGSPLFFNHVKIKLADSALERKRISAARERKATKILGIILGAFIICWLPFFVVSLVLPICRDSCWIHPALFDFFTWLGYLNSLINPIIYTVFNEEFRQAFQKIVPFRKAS

[13] = target: Cyclin-dependent kinase 4 (Homo sapiens) (UniProt P11802)
[14] = target: Myosin light chain kinase family member 4 (Homo sapiens) (UniProt Q86YV6)
[15] = target: Mitogen-activated protein kinase kinase kinase 19 (Homo sapiens) (UniProt Q56UN5)
[16] = target: Myotonin-protein kinase (Homo sapiens) (UniProt Q09013)
[17] = test system: Phosphatidylinositol 4,5-bisphosphate 3-kinase catalytic subunit alpha isoform (Homo sapiens), P42336 [M1043I]
[18] = target: Calcium/calmodulin-dependent protein kinase type II subunit alpha (Homo sapiens) (UniProt Q9UQM7)
Calcium/calmodulin-dependent protein kinase type II subunit alpha (Homo sapiens), sequence (Q9UQM7 whole entry): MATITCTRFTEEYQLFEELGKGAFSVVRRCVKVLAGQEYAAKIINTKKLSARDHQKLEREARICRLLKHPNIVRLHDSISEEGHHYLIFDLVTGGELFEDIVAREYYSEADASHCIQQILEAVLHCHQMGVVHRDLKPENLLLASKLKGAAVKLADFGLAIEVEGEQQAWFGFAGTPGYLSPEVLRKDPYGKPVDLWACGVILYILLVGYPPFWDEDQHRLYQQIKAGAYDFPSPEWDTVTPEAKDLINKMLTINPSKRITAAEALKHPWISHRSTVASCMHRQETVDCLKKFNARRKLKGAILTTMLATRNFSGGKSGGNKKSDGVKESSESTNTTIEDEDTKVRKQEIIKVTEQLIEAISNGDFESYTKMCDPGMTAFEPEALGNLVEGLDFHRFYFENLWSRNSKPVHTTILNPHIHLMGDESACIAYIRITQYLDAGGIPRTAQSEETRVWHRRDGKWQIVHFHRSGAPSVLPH

[19] = test system: Mast/stem cell growth factor receptor Kit (Homo sapiens), P10721 [V559D,T670I]
Mast/stem cell growth factor receptor Kit (Homo sapiens), P10721 [V559D,T670I], sequence (P10721 whole entry V559D/T670I, canonical isoform): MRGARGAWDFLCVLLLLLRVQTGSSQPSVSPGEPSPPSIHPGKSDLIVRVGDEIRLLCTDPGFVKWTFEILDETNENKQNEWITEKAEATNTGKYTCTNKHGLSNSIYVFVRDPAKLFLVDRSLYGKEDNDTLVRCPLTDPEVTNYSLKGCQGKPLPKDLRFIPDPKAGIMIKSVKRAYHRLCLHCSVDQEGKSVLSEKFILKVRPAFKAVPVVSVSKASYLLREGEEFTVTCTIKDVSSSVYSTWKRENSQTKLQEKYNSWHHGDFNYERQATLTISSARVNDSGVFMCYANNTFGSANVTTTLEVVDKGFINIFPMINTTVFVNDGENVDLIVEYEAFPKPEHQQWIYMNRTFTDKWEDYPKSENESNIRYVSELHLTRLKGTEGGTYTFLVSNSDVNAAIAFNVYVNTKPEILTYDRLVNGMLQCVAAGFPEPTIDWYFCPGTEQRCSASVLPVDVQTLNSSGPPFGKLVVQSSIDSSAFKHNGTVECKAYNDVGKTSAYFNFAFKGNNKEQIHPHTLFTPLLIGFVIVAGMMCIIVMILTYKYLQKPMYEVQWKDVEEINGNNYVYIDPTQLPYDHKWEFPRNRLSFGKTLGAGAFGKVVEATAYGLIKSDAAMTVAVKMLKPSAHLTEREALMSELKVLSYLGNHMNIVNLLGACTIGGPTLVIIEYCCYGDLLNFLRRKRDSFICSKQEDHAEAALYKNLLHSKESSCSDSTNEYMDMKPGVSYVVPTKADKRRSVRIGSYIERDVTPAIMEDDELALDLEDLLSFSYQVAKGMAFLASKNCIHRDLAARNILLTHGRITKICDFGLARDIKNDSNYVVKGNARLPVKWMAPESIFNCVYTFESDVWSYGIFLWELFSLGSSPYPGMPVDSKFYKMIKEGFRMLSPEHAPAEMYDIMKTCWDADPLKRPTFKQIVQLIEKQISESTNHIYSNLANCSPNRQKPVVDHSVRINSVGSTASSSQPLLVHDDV

[20] = test system: Phosphatidylinositol 4,5-bisphosphate 3-kinase catalytic subunit alpha isoform (Homo sapiens), P42336 [E545A]
[21] = target: Serine/threonine-protein kinase B-raf (Homo sapiens) (UniProt P15056)
[22] = target: Ephrin type-A receptor 6 (Homo sapiens) (UniProt Q9UF33)
[23] = target: Tyrosine-protein kinase Mer (Homo sapiens) (UniProt Q12866)
[24] = target: Mitogen-activated protein kinase 11 (Homo sapiens) (UniProt Q15759)
[25] = target: Mitogen-activated protein kinase kinase kinase 15 (Homo sapiens) (UniProt Q6ZN16)
[26] = target: Aurora kinase A (Homo sapiens) (UniProt O14965)
Aurora kinase A (Homo sapiens), sequence (O14965 whole entry): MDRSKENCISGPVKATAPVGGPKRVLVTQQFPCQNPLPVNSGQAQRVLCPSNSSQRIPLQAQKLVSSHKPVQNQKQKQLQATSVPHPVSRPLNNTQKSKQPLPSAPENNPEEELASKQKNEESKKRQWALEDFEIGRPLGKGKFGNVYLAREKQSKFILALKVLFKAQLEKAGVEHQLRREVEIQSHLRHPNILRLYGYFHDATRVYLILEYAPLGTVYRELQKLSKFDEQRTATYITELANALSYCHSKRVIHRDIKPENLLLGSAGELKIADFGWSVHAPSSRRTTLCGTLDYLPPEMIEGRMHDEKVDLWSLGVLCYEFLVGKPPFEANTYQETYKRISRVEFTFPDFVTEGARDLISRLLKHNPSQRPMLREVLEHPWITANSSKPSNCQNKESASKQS

[27] = target: Sodium-dependent serotonin transporter (Homo sapiens) (UniProt P31645); details: Compound concentration 10.0 uM
[28] = test system: Hepatocyte growth factor receptor (Homo sapiens), P08581 [M1250T]
[29] = target: Ribosomal protein S6 kinase alpha-4 (Homo sapiens) (UniProt O75676)
[30] = target: Serine/threonine-protein kinase 17B (Homo sapiens) (UniProt O94768)
Serine/threonine-protein kinase 17B (Homo sapiens), sequence (O94768 whole entry): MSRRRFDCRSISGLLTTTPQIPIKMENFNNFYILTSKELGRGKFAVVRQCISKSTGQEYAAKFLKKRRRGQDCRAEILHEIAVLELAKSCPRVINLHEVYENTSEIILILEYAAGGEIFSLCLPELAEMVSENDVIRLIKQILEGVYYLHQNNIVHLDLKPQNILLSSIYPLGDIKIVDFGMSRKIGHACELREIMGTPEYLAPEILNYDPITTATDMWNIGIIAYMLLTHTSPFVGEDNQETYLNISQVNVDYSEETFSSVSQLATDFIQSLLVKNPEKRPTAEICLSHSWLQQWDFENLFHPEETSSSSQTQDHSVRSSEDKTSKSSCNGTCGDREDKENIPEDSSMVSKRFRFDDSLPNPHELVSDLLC

[31] = target: Insulin receptor (Homo sapiens) (UniProt P06213)
[32] = target: Phosphatidylinositol 3-kinase C2 domain-containing subunit gamma (Homo sapiens) (UniProt O75747)
Phosphatidylinositol 3-kinase C2 domain-containing subunit gamma (Homo sapiens), sequence (O75747 whole entry, the tested form may be a part): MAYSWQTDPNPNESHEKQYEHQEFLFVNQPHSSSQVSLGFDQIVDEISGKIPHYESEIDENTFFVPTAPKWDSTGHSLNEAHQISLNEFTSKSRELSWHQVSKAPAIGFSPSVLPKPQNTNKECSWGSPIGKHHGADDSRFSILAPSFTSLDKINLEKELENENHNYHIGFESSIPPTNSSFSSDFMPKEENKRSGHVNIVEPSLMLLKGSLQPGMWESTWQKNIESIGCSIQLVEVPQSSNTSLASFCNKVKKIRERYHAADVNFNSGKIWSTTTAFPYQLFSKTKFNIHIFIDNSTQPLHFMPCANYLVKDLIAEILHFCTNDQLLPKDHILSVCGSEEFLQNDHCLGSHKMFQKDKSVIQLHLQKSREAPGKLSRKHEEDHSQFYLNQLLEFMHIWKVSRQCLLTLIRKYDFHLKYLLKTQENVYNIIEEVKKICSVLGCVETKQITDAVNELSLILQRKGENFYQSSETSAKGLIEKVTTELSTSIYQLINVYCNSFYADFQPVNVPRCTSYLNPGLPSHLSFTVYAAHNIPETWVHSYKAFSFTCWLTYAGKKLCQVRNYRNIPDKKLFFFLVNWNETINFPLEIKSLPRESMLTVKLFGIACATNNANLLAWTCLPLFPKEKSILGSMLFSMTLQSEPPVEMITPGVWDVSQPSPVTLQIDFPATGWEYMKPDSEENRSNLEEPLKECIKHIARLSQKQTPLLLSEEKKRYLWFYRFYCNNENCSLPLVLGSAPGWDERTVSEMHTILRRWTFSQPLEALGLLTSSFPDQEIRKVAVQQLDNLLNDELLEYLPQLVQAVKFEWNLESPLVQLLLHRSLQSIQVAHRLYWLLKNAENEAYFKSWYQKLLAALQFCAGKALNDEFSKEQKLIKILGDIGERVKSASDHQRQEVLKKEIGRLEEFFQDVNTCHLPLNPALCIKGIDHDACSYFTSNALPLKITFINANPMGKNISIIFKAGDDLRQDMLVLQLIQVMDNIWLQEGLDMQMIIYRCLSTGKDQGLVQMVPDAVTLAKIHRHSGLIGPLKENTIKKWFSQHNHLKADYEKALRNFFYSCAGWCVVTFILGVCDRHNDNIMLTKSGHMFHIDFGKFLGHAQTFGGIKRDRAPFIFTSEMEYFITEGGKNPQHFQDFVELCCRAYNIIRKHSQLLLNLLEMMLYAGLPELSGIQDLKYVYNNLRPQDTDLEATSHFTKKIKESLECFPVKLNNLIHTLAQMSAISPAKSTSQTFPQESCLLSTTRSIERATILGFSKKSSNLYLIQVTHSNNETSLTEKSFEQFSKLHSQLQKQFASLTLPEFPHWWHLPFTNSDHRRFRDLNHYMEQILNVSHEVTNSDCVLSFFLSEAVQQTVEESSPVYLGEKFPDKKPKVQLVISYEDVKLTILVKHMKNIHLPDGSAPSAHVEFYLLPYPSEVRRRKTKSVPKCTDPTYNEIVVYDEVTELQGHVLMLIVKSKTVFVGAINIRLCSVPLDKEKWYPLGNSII

[33] = test system: Receptor-type tyrosine-protein kinase FLT3 (Homo sapiens), P36888 [K663Q]
[34] = test system: Tyrosine-protein kinase ABL1 (Homo sapiens), P00519 [F317L]
[35] = target: Protein kinase C iota type (Homo sapiens) (UniProt P41743)
[36] = target: 5-hydroxytryptamine receptor 2A (Homo sapiens) (UniProt P28223); details: Compound concentration 10.0 uM
[37] = target: MAP kinase-interacting serine/threonine-protein kinase 1 (Homo sapiens) (UniProt Q9BUB5)
[38] = target: Hormonally up-regulated neu tumor-associated kinase (Homo sapiens) (UniProt P57058)
[39] = target: Serine/threonine-protein kinase 24 (Homo sapiens) (UniProt Q9Y6E0)
[40] = target: Death-associated protein kinase 3 (Homo sapiens) (UniProt O43293)
Death-associated protein kinase 3 (Homo sapiens), sequence (O43293 whole entry, looked up): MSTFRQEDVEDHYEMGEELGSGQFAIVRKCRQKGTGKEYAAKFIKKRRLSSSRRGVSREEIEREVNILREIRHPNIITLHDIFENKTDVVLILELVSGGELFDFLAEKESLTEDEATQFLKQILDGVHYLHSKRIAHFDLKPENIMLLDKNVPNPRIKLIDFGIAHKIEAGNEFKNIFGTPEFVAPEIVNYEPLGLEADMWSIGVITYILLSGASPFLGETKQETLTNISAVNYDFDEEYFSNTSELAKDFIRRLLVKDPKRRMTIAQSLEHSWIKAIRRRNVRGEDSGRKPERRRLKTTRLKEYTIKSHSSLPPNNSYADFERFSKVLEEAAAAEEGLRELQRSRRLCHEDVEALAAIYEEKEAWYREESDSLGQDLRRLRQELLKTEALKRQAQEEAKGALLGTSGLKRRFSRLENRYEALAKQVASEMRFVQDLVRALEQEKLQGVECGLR

[41] = target: Hepatocyte growth factor receptor (Homo sapiens) (UniProt P08581)
[42] = target: Serine/threonine-protein kinase SIK2 (Homo sapiens) (UniProt Q9H0K1)
[43] = target: Casein kinase I isoform gamma-2 (Homo sapiens) (UniProt P78368)
Casein kinase I isoform gamma-2 (Homo sapiens), sequence (P78368 whole entry, looked up, canonical isoform): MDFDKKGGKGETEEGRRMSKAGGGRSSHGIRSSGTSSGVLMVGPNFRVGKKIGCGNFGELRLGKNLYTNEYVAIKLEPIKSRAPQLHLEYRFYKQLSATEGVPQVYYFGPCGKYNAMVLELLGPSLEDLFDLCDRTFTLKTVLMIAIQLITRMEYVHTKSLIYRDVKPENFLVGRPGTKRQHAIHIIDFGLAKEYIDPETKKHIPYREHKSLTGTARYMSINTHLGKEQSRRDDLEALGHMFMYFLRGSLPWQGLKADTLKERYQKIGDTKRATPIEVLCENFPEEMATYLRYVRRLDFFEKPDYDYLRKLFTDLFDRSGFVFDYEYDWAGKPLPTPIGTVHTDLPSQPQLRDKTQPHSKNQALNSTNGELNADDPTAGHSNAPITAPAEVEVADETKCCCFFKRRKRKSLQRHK

[44] = test system: Mast/stem cell growth factor receptor Kit (Homo sapiens), P10721 [D816V]
[45] = target: Mitogen-activated protein kinase 6 (Homo sapiens) (UniProt Q16659)
[46] = Compound concentration 100.0 nM
[47] = Compound concentration 1000.0 nM

Cc1cc(C)c(-n2ccn3nc(-c4cccnc4)cc23)cc1NC(=O)c1cc(C#N)cc(S(F)(F)(F)(F)F)c1 [BAY-826]
inactive: residual activity [1, 46] 83.8% | residual activity [2, 46] 100% | residual activity [3, 46] 98.8% | residual activity [4, 46] 89.1% | residual activity [5, 46] 99.4% | residual activity [6, 46] 87.8% | residual activity [7, 46] 100% | residual activity [8, 46] 100% | residual activity [9, 46] 86.3% | residual activity [10, 46] 86.4% | inhibition [12] 9.27% | residual activity [13, 46] 89.4% | residual activity [14, 46] 100% | residual activity [15, 46] 99.5% | residual activity [16, 46] 95.6% | residual activity [17, 46] 100% | residual activity [18, 46] 95% | residual activity [19, 46] 67.9% | residual activity [20, 46] 73% | residual activity [21, 46] 89.4% | residual activity [22, 46] 82.6% | residual activity [23, 46] 83.6% | residual activity [24, 46] 93.4% | residual activity [26, 46] 75.9% | inhibition [27] 11.1% | residual activity [28, 46] 100% | residual activity [29, 46] 100% | residual activity [30, 46] 91.4% | residual activity [31, 46] 69% | residual activity [32, 46] 60.7% | residual activity [33, 46] 100% | residual activity [35, 46] 100% | inhibition [36] -4.7% | residual activity [37, 46] 83.8% | residual activity [38, 46] 83% | residual activity [39, 46] 75.9% | residual activity [40, 46] 78.1% | residual activity [41, 46] 82.8% | residual activity [42, 46] 94.2% | residual activity [43, 46] 77.6% | residual activity [44, 46] 98.8% | residual activity [45, 46] 85.8%
active: residual activity [11, 46] 40.7% | residual activity [25, 46] 48.8% | residual activity [34, 46] 26.6%

Cc1cc(NC(=O)c2cccc(S(F)(F)(F)(F)F)c2)cc(-n2ccn3nc(-c4cccnc4)cc23)c1 [BAY-309]
active: residual activity [1, 47] 29.4% | residual activity [17, 47] 30.3% | residual activity [21, 47] 43.5%
inactive: residual activity [2, 47] 100% | residual activity [3, 47] 82% | residual activity [4, 47] 100% | residual activity [5, 47] 100% | residual activity [6, 47] 86.8% | residual activity [7, 47] 100% | residual activity [8, 47] 100% | residual activity [9, 47] 50.4% | residual activity [10, 47] 52.7% | residual activity [11, 47] 100% | inhibition [12] 15.4% | residual activity [13, 47] 82.9% | residual activity [14, 47] 91.4% | residual activity [15, 47] 100% | residual activity [16, 47] 100% | residual activity [18, 47] 100% | residual activity [19, 47] 91.3% | residual activity [20, 47] 69.2% | residual activity [22, 47] 100% | residual activity [23, 47] 100% | residual activity [24, 47] 98.1% | residual activity [25, 47] 100% | residual activity [26, 47] 84.9% | inhibition [27] 19.2% | residual activity [28, 47] 83.2% | residual activity [29, 47] 100% | residual activity [30, 47] 100% | residual activity [31, 47] 100% | residual activity [32, 47] 100% | residual activity [33, 47] 100% | residual activity [34, 47] 100% | residual activity [35, 47] 80.4% | inhibition [36] 21.9% | residual activity [37, 47] 100% | residual activity [38, 47] 77.6% | residual activity [39, 47] 100% | residual activity [40, 47] 100% | residual activity [41, 47] 77.3% | residual activity [42, 47] 100% | residual activity [43, 47] 95.4% | residual activity [44, 47] 100% | residual activity [45, 47] 100%
